The nature of series [1]: Selectivity ratio of IC50 for PDE3 to IC50 for mouse PDE10A7.
Series [2] can be described thus: Inhibition of PDE3.
Series [3] can be described thus: Inhibition of mouse PDE10A7 using fluorescein labeled CAMP as substrate incubated for 30 mins prior to substrate addition measured after 30 mins by fluorescence polarization assay.
A short description of series [4]: Clearance in rat liver microsomes. The format is ADME, Microsome. As to conditions: read-out: CLH.
The nature of series [5]: Oral bioavailability in rat at 5 mg/kg. The format is ADME, organism-based. As to conditions: in vivo.
Series [6] can be described thus: Half life in rat at 1 mg/kg, iv and 5 mg/kg, po. Type of series: ADME, organism-based. To be noted: in vivo.
Series [7] is described as follows: Clearance in rat at 1 mg/kg, iv and 5 mg/kg, po. The format is ADME, organism-based. To be noted: in vivo.

Usually IC50 stands for the concentration that gives 50% inhibition. Lower therefore signals higher potency. For the molecule `COc1cc2c(-c3cnc(N4CCC(C(C)(C)O)CC4)c(C)c3)cnnc2cc1OC(F)F`, in series [1], the Ratio IC50 was 231. The IC50 was found to be 15900 nM in series [2] and 68.6 nM in series [3].

`COc1cc2snc(-c3ccc(NC(C)C)nc3)c2cc1OC`: the IC50 in series [3] amounted to 1090 nM.

Take `CCn1cc(-c2cnc(N3CCC(C(C)(C)O)CC3)c(C)c2)c2cc(OC)c(OC)cc2c1=O`: the microsomal CLint in series [4] worked out at 50 µL/min/mg. In series [3], the IC50 is 13.8 nM.

For the molecule `COc1cc2cncc(-c3cnc(N4CCC(C(C)(C)O)CC4)c(C)c3)c2cc1OC`, the microsomal CLint in series [4] is 69 µL/min/mg. The IC50 in series [3] is 13.4 nM.

On to `COc1cc2c(-c3cnc(N4CCC(C(C)(C)O)CC4)c(C)c3)cnnc2cc1F`, for which the Ratio IC50 in series [1] was above 75. The IC50 was above 10000 nM in series [2] and 132 nM in series [3].

Consider `COc1cc2nncc(-c3cnc(N4CCC(C(C)(C)O)CC4)c(Cl)c3)c2cc1OC`, for which the Ratio IC50 in series [1] was found to be 357. Also, the results for the IC50 in series [2] and in series [3] were 2250 nM and 6.3 nM, respectively.

What is called bioavailability is the share of a dose that reaches the circulation, judged against a reference dose that is usually intravenous. A lower bioavailability goes with poor availability. Usually half-life stands for the time needed for the level to fall by half in the phase considered. With `COc1cc2nncc(-c3cnc(N4CCC(C(C)(C)O)CC4)c(C)c3)c2cc1OC`, the Ratio IC50 in series [1] is 347. Moreover, the bioavailability in series [5] came out at 60%. For the same molecule, the IC50 in series [2] turned out to be 1700 nM. Also, in series [6], the half-life is 1.54 h.

As to `COc1cc2ccnc(-c3ccc(NC(C)C)nc3)c2cc1OC`, in series [3], the IC50 was found to be 47 nM.

As to `COc1cc2nncc(-c3cnc(N4CCC(C(C)(C)O)CC4)c(C)c3)c2cc1OC1CC1`, in series [1], the Ratio IC50 was 4360. The same molecule yielded a bioavailability in series [5] of 32%. Further, the values for the IC50 in series [2] and in series [3] were 17900 nM and 4.1 nM, respectively. Further, the half-life in series [6] is 1.48 h. The molecule also gave a clearance in series [7] of 15.5 mL/min/kg.

Take `CCOc1cc2c(-c3cnc(N4CCC(C(C)(C)O)CC4)c(C)c3)cnnc2cc1C`: in series [1], the Ratio IC50 is above 244. For the same molecule, the IC50 is above 10000 nM in series [2] and 40.9 nM in series [3].

For the molecule `COc1cc2nncc(-c3cnc(N4CCC(C(C)(C)O)CC4)c(C)c3)c2cc1C`, the Ratio IC50 in series [1] stood at 980. Also, the IC50 in series [2] came out at 25100 nM; in series [3], 25.6 nM.

Turning to `COc1cc2c(-c3cnc(N4CCC(C(C)(C)O)CC4)c(C)c3)cnnc2cc1OCC1CC1`, the Ratio IC50 in series [1] was above 523. For the same molecule, the IC50 was above 10000 nM in series [2] and 19.1 nM in series [3].

On to `COc1cc2nncc(-c3ccc(NC(C)C)nc3)c2cc1OC`, for which the IC50 in series [3] was found to be 7.6 nM.

Take `COc1cc2nncc(-c3cnc(N4CCC(C(C)(C)O)CC4)c(C4CC4)c3)c2cc1OC`: the Ratio IC50 in series [1] is 2290. Besides, the figures for the IC50 in series [2] and in series [3] were 2980 nM and 1.3 nM, respectively.

Regarding `COc1cc2nccc(-c3cnc(N4CCC(C(C)(C)O)CC4)c(C)c3)c2cc1OC`, the microsomal CLint in series [4] was determined as 57 µL/min/mg. Also, it took 11.9 nM to reach half-maximal inhibition in series [3] (IC50).

`COc1cc2nncc(-c3cnc(N4CCC(C(C)(C)O)CC4)c(C(F)F)c3)c2cc1OC`: the Ratio IC50 in series [1] was 5520. In series [5], this molecule showed a bioavailability of 46%. Further, the IC50 in series [2] is 6630 nM; in series [3] it was 1.2 nM. This molecule also had a half-life in series [6] of 2.08 h.

Take `COc1cc2nncc(-c3cnc(N4CCC(C(C)(C)O)CC4)c(C)c3)c2cc1N(C)C`: the IC50 is above 10000 nM in series [2] and 4500 nM in series [3].

The record behind these values is ChEMBL document CHEMBL2157938, “Use of structure based design to increase selectivity of pyridyl-cinnoline phosphodiesterase 10A (PDE10A) inhibitors against phosphodiesterase 3 (PDE3)” (Bioorg Med Chem Lett, 2012).
